From patent publication US4053615A, “Phthalimidopiperidines and anti-convulsant compositions thereof” (John Wyeth & Brother Limited, priority 1972, dated 1977)

Key:
[1] = test system: clonic and tonic convulsions induced by pentylenetetrazole; assay: Procedure A: anti-pentylenetetrazole activity; format: in vivo; set-up: key to Activity class, Procedure A: INACTIVE: A compound is regarded as inactive in either one of the two procedures if the ED50 of the compound in the test procedure is greater than 400 mg/kg; conditions: mice, p.o.; for ED50: Mus musculus, po, 1 h, challenge one hour later with pentylenetetrazole 125 mg/kg i.p., read-out: ED50 (against convulsions), Procedure A
Protocol: ANTI-PENTYLENETETRAZOLE ACTIVITY
Compounds at a number of dose levels are administered p.o. to groups of six mice (3 males and 3 females). One hour later the animals are challenged with pentylenetetrazole (125mg/kg i.p.). The incidence of clonic and tonic convulsions and deaths is observed for one-half hour. Protection against convulsions and death is determined by comparison with controls run simultaneously. An ED50 against convulsions is calculated from probit-log dose curves.

[2] = Anti-arrhythmic activity; format: in vivo; conditions: when tested on warm blooded animals
[3] = test system: blood platelet aggregation; assay: Inhibition of blood platelet aggregation
[4] = Anti-inflammatory activity; format: in vivo; conditions: when tested on warm blooded animals
[5] = test system: tonic extensor seizures (maximal electroshock); assay: Procedure B: maximal electroshock seizures (MES); format: in vivo; set-up: key to Activity class, Procedure B: INACTIVE: A compound is regarded as inactive in either one of the two procedures if the ED50 of the compound in the test procedure is greater than 400 mg/kg; conditions: mice, orally; for ED50: Mus musculus, po, 1 h, supramaximal electroshock one hour later (25 mA, 0.2 sec), read-out: ED50 (against convulsions), Procedure B
Protocol: MAXIMAL ELECTROSHOCK SEIZURES (MES)
Compounds at graded dose levels are administered orally to groups of six mice. One hour later, the animals are given a supramaximal electroshock through pinna electrodes (25 mA, 0.2 sec). Presence or absence of tonic extensor seizures as well as the number of deaths are recorded.
The percent protection against seizures is calculated. An ED50 against convulsions is calculated from probit-log dose curves.

SMILES	ED50 [1] [mg/kg]	other results
Nc1ccc2c(c1)C(=O)N(C1CCN(Cc3ccccc3)CC1)C2=O [Example 16, 4-(4-Aminophthalimido)-1-benzylpiperidine]	6 to 15	
CCN1CCCC(N2C(=O)c3ccc([N+](=O)[O-])cc3C2=O)C1 (stereo not shown) [Example 4, 1-Ethyl-3-(4-nitrophthalimido)piperidine]	6 to 15	anti-arrhythmic activity [2]: anti-arrhythmic activity is shown
CCCCN1CCC(N2C(=O)c3ccc(N)cc3C2=O)CC1 [Example 13, 4-(4-Aminophthalimido)-1-n-butylpiperidine]	6 to 15	
O=C1c2ccc([N+](=O)[O-])cc2C(=O)N1C1CCN(Cc2ccccc2)CC1 [Example 15, 1-Benzyl-4-(4-nitrophthalimido)piperidine]	6 to 15	
O=C1c2ccccc2C(=O)N1C1CCNCC1 [Example 2, 4-Phthalimido-piperidine]		inhibition of blood platelet aggregation [3]: active as an inhibitor of blood platelet aggregation
O=C1c2ccccc2C(=O)N1C1CCN(Cc2ccccc2)CC1 [Example 1, 1-Benzyl-4-phthalimido-piperidine]		anti-inflammatory activity [4]: Anti-inflammatory activity is shown
CCN1CCCC(N2C(=O)c3ccc(N)cc3C2=O)C1 (stereo not shown) [Example 6, 3-(4-Aminophthalimido)-1-ethylpiperidine]	6 to 15	
CCN1CCC(N2C(=O)c3ccccc3C2=O)C1 (stereo not shown) [1-ethyl-3-phthalimido-pyrrolidine, 1-ethyl-3-phthalimidopyrrolidine, reference compound]	> 400	Activity class, Procedure A ([1]; pentylenetetrazole challenge): INACTIVE; ED50 [5]: > 400 mg/kg; Activity class, Procedure B ([5]; maximal electroshock): INACTIVE
CCCCN1CCC(N2C(=O)c3ccc([N+](=O)[O-])cc3C2=O)CC1 [Example 12, 1-n-Butyl-4-(4-nitrophthalimido)piperidine]	6 to 15	
CCN1CCCC(N2C(=O)c3ccccc3C2=O)C1 (stereo not shown) [Example 3, 1-Ethyl-3-phthalimido-piperidine]	51 to 100	anti-arrhythmic activity [2]: anti-arrhythmic activity is shown; ED50 [5]: 31 to 50 mg/kg
